# Test results: patent US10988792B2, “Methods for antimicrobial resistance determination” (bioMerieux, Inc., priority 2009, dated 2021)
# Experiments:
# Format in all cases: cell-based
# [1] = test system: E. faecium 13185 (VRE); assay: Co-culture with vancomycin and Sytox Green, intrinsic fluorescence and membrane integrity of pellet; settings: for Microbial NADH fluorescence (Ex340 nm/Em440 nm) / Microbial tryptophan fluorescence (Ex300 nm/Em360 nm): 13185 (VRE)
# Method: (§1) For each test strain, a 1 μL loopful of colonies from a 24-48 hour plate was suspended in 10-12 mL of BacT/ALERT SA media and cultured for 4-9 hours at 37° C. […] Aliquots of the cultures were removed for analysis immediately (T0) and after 1, 2.5 and 4 hours.
# (§2) At the appropriate time-point, 0.5 mL aliquots of the cultures (0.5 mL) were overlaid on a density cushion composed of 24% w/v CsCl in 10 mM Hepes, pH 7.4 and 0.005% Pluronic F-108 contained in custom-made optical centrifugation tubes as disclosed in related U.S. patent application, Ser. No. 12/589,969, entitled “Separation Device for Use in the Separation, Characterization and/or Identification of Microorganisms”, filed Oct. 30, 2009. The tubes were sealed and centrifuged at 10,000 rpm for 2 minutes to separate intact microorganisms from the culture medium and unbound chemicals. The tubes were then placed into a custom-built tube holder directly onto a fiber optic probe built into the base. The probe was attached to a FluoroLog 3 spectrofluorimeter. The tube was interrogated through its UV-transparent base, and fluorescence and diffuse reflectance readings collected.
# [2] = test system: E. faecium 12406 (VRE); assay: as above; settings: for Microbial NADH fluorescence (Ex340 nm/Em440 nm) / Microbial tryptophan fluorescence (Ex300 nm/Em360 nm): 12406 (VRE)
# Method: as §1, §2
# [3] = test system: E. faecium #13185 (VRE); assay: Vancomycin MIC by VITEK 2; settings: read-out: vancomycin MIC by VITEK 2
# [4] = VRE strain 13185, vancomycin 2.5 and 12.5 μg/mL
# [5] = VRE strain 12406, vancomycin 2.5 and 12.5 μg/mL
compound,measurement,setting,value
CN[C@H](CC(C)C)C(=O)N[C@H]1C(=O)N[C@@H](CC(N)=O)C(=O)N[C@H]2C(=O)N[C@H]3C(=O)N[C@H](C(=O)N[C@H](C(=O)O)c4cc(O)cc(O)c4-c4cc3ccc4O)[C@H](O)c3ccc(c(Cl)c3)Oc3cc2cc(c3O[C@@H]2O[C@H](CO)[C@@H](O)[C@H](O)[C@H]2O[C@H]2C[C@](C)(N)[C@H](O)[C@H](C)O2)Oc2ccc(cc2Cl)[C@H]1O [vancomycin],Microbial NADH fluorescence (Ex340 nm/Em440 nm),"[1]; Vanc. 2.5 μg/mL, 4 hour","782,908"
same,Microbial tryptophan fluorescence (Ex300 nm/Em360 nm),"[1]; Vanc. 2.5 μg/mL, 4 hour","868,768"
same,Microbial NADH fluorescence (Ex340 nm/Em440 nm),"[1]; Vanc. 2.5 μg/mL, Zero time","256,533"
same,Microbial tryptophan fluorescence (Ex300 nm/Em360 nm),"[1]; Vanc. 2.5 μg/mL, Zero time","531,239"
same,Microbial tryptophan fluorescence (Ex300 nm/Em360 nm),"[1]; Vanc. 12.5 μg/mL, 1 hour","579,537"
same,Microbial NADH fluorescence (Ex340 nm/Em440 nm),"[1]; Vanc. 12.5 μg/mL, 2.5 hour","775,629"
same,Microbial tryptophan fluorescence (Ex300 nm/Em360 nm),"[1]; Vanc. 12.5 μg/mL, 2.5 hour","537,067"
same,Microbial NADH fluorescence (Ex340 nm/Em440 nm),"[1]; Vanc. 12.5 μg/mL, 4 hour","710,100"
same,Microbial tryptophan fluorescence (Ex300 nm/Em360 nm),"[1]; Vanc. 12.5 μg/mL, 4 hour","782,106"
same,Microbial NADH fluorescence (Ex340 nm/Em440 nm),"[1]; Vanc. 12.5 μg/mL, Zero time","234,554"
same,Microbial tryptophan fluorescence (Ex300 nm/Em360 nm),"[1]; Vanc. 12.5 μg/mL, Zero time","537,160"
same,Course of cellular NADH levels,[1]; [4],rose after approximately 1 hour in culture and continued to rise over the 4-hour culture period
same,Course of cellular tryptophan levels,[1]; [4],rose slowly over the 4-hour culture period
same,Microbial NADH fluorescence (Ex340 nm/Em440 nm),"[2]; Vanc. 0.25 μg/mL, 1 hour","616,448"
same,Microbial tryptophan fluorescence (Ex300 nm/Em360 nm),"[2]; Vanc. 0.25 μg/mL, 1 hour","666,793"
same,Microbial NADH fluorescence (Ex340 nm/Em440 nm),"[2]; Vanc. 0.25 μg/mL, 2.5 hour","703,451"
same,Microbial tryptophan fluorescence (Ex300 nm/Em360 nm),"[2]; Vanc. 0.25 μg/mL, 2.5 hour","679,880"
same,Microbial NADH fluorescence (Ex340 nm/Em440 nm),"[2]; Vanc. 0.25 μg/mL, 4 hour","598,853"
same,Microbial tryptophan fluorescence (Ex300 nm/Em360 nm),"[2]; Vanc. 0.25 μg/mL, 4 hour","800,658"
same,Microbial NADH fluorescence (Ex340 nm/Em440 nm),"[2]; Vanc. 0.25 μg/mL, Zero time","207,307"
same,Microbial tryptophan fluorescence (Ex300 nm/Em360 nm),"[2]; Vanc. 0.25 μg/mL, Zero time","463,942"
same,Microbial tryptophan fluorescence (Ex300 nm/Em360 nm),"[2]; Vanc. 2.5 μg/mL, 1 hour","560,948"
same,Microbial NADH fluorescence (Ex340 nm/Em440 nm),"[2]; Vanc. 2.5 μg/mL, 2.5 hour","573,926"
same,Microbial tryptophan fluorescence (Ex300 nm/Em360 nm),"[2]; Vanc. 2.5 μg/mL, 2.5 hour","656,768"
same,Microbial NADH fluorescence (Ex340 nm/Em440 nm),"[2]; Vanc. 2.5 μg/mL, 4 hour","931,786"
same,Microbial tryptophan fluorescence (Ex300 nm/Em360 nm),"[2]; Vanc. 2.5 μg/mL, 4 hour","651,886"
same,Microbial NADH fluorescence (Ex340 nm/Em440 nm),"[2]; Vanc. 2.5 μg/mL, Zero time","440,416"
same,Microbial tryptophan fluorescence (Ex300 nm/Em360 nm),"[2]; Vanc. 2.5 μg/mL, Zero time","425,860"
same,Microbial NADH fluorescence (Ex340 nm/Em440 nm),"[2]; Vanc. 12.5 μg/mL, 1 hour","207,520"
same,Microbial tryptophan fluorescence (Ex300 nm/Em360 nm),"[2]; Vanc. 12.5 μg/mL, 1 hour","433,269"
same,Microbial NADH fluorescence (Ex340 nm/Em440 nm),"[2]; Vanc. 12.5 μg/mL, 2.5 hour","279,170"
same,Microbial tryptophan fluorescence (Ex300 nm/Em360 nm),"[2]; Vanc. 12.5 μg/mL, 2.5 hour","560,607"
same,Microbial NADH fluorescence (Ex340 nm/Em440 nm),"[2]; Vanc. 12.5 μg/mL, 4 hour","765,401"
same,Microbial tryptophan fluorescence (Ex300 nm/Em360 nm),"[2]; Vanc. 12.5 μg/mL, 4 hour","738,461"
same,Microbial NADH fluorescence (Ex340 nm/Em440 nm),"[2]; Vanc. 12.5 μg/mL, Zero time","172,372"
same,Microbial tryptophan fluorescence (Ex300 nm/Em360 nm),"[2]; Vanc. 12.5 μg/mL, Zero time","463,985"
same,Course of cellular NADH levels,[2]; [5],rose after approximately 1 hour in culture and continued to rise over the 4-hour culture period
same,Course of cellular tryptophan levels,[2]; [5],rose slowly over the 4-hour culture period
same,Delay in NADH production compared with the other VRE strain,"[2]; VRE strain #12406, correlated with an influx of Sytox Green",longer delay in NADH production
same,MIC,[3],> 32 mg/L
